Test results as given in ChEMBL document CHEMBL5465560, “Selectivity Literature for EUbOPEN Chemogenomic Library” (2024).
pIC50: −log10 of the molar value. Each block holds one compound with its values, some of them ahead of it.

Experiments:
[1] = biological target: Mitogen-activated protein kinase 9 (Homo sapiens, UniProt P45984); assay: Selectivity interaction (Kinase panel (Z-LYTE Assay)) EUB0001632a MAPK9; details: at 10 µM
[2] = biological target: Tyrosine-protein kinase Lck (Homo sapiens, UniProt P06239); assay: Selectivity interaction (Kinase panel (33PanQinase(R) Activity Assay)) EUB0000877a LCK
Tyrosine-protein kinase Lck, sequence (P06239 whole entry): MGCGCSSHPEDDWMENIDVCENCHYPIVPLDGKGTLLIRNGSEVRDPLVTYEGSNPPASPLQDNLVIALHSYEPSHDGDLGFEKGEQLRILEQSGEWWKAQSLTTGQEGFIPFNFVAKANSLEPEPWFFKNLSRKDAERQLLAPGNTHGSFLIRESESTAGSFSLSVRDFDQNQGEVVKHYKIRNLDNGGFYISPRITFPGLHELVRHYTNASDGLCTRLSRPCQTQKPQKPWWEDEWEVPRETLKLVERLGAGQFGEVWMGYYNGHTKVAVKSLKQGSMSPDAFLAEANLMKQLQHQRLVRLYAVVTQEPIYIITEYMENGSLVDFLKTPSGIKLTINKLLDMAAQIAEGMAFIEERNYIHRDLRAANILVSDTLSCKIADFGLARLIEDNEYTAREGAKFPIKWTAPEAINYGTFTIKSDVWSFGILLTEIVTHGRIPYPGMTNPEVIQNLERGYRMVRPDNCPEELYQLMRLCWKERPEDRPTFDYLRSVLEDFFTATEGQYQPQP

[3] = biological target: T1, Serine/threonine-protein kinase 17B (Homo sapiens) (UniProt O94768); details: at 10 µM
T1 sequence (whole entry): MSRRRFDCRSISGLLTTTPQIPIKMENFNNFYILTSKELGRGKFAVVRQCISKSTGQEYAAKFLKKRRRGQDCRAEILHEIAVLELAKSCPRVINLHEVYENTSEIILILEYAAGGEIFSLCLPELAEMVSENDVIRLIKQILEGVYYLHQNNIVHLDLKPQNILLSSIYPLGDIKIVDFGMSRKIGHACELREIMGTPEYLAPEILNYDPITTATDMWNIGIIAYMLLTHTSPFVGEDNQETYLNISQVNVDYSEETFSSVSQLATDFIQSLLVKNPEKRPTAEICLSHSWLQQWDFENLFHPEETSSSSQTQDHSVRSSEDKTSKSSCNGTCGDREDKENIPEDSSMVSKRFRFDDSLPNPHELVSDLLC

[4] = biological target: T2, Dual specificity tyrosine-phosphorylation-regulated kinase 2 (Homo sapiens) (UniProt Q92630); assay: Selectivity interaction (KinomeScan (DiscoverX)) EUB0001079a DYRK2; details: at 1 µM
T2 sequence (whole entry): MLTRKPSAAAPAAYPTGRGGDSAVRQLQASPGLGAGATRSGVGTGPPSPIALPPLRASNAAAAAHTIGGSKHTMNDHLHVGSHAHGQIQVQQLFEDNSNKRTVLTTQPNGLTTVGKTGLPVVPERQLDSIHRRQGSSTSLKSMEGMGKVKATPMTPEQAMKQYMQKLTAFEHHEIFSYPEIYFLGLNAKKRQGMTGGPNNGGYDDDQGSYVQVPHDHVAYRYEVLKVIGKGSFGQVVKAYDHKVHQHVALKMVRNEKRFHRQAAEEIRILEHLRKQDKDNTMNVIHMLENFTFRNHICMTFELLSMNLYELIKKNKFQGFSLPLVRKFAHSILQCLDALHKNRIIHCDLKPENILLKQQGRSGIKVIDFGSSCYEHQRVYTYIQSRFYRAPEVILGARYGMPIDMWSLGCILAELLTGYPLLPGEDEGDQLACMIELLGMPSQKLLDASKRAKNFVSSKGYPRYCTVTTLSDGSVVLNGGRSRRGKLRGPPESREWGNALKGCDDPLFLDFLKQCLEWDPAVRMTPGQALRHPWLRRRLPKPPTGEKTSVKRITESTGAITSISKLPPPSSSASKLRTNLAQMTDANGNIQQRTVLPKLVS

[5] = biological target: T3, Serine/threonine-protein kinase TAO3 (Homo sapiens) (UniProt Q9H2K8); assay: Selectivity interaction (KinomeScan (DiscoverX)) EUB0000618a TAOK3; details: at 10 µM
T3 sequence (whole entry): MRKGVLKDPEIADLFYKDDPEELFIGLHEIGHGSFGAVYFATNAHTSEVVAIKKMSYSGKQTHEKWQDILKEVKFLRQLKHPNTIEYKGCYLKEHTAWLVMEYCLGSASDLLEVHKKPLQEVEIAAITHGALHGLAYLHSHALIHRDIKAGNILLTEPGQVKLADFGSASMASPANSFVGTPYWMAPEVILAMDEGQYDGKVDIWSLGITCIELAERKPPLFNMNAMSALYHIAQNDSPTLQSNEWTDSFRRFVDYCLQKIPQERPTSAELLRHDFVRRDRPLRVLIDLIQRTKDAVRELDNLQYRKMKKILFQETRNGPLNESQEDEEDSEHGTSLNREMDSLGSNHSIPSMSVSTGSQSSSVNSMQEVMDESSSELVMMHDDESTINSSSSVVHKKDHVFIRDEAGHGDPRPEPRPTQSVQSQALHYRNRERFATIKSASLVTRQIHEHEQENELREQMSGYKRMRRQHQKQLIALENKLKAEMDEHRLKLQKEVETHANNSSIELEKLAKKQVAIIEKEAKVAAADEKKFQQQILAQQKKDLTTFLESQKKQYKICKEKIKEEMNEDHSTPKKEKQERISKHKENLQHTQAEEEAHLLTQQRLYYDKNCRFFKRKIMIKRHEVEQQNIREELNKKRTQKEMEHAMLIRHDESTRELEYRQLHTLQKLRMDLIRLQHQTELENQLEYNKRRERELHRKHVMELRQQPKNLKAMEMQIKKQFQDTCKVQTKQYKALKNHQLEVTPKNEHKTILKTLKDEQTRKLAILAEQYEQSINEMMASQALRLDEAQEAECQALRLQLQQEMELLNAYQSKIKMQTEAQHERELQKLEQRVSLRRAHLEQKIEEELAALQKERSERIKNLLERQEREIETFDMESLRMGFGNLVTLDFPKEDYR

[6] = biological target: Serine/threonine-protein kinase MRCK gamma (Homo sapiens) (UniProt Q6DT37); assay: Selectivity interaction (KinomeScan (DiscoverX)) EUB0001619a CDC42BPG; details: at 1 µM
Serine/threonine-protein kinase MRCK gamma (Homo sapiens), sequence (Q6DT37 whole entry): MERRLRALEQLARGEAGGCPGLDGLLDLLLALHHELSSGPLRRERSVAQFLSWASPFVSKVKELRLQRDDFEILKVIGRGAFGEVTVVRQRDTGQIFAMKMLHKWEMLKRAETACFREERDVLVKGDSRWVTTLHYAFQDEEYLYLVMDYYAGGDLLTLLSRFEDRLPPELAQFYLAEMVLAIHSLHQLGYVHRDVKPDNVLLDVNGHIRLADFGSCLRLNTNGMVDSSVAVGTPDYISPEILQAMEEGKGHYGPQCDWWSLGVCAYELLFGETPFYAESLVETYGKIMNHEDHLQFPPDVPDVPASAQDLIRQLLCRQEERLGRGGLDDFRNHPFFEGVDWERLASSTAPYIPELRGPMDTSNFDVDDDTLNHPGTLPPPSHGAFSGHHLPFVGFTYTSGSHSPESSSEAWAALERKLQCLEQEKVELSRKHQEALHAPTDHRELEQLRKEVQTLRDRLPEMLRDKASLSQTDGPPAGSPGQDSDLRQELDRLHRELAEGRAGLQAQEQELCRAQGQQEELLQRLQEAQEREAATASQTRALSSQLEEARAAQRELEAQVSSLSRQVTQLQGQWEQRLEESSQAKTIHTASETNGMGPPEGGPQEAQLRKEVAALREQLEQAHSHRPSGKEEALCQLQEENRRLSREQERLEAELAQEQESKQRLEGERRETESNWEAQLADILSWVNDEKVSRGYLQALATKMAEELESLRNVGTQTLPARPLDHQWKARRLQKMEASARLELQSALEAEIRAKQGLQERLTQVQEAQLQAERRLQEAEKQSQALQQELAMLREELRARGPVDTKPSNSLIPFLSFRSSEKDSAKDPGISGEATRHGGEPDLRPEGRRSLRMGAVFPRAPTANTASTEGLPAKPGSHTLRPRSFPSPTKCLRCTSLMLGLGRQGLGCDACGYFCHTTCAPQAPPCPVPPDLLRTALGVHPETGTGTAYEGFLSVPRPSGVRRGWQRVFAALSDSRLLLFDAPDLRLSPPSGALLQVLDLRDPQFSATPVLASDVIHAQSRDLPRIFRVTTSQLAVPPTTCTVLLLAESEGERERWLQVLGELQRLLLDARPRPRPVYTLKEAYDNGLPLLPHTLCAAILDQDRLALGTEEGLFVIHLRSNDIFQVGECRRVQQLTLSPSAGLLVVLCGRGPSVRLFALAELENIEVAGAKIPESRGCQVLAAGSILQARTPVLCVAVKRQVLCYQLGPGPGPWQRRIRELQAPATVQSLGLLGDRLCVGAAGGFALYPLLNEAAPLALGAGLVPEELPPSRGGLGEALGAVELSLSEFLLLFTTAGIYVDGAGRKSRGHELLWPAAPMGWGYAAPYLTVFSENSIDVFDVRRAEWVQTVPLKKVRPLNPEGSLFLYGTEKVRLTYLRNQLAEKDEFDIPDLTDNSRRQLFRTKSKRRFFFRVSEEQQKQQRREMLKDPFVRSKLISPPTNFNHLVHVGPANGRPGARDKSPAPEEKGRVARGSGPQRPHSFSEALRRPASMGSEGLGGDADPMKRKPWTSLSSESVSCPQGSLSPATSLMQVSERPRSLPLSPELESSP

Mitogen-activated protein kinase 9, sequence (P45984 whole entry, looked up): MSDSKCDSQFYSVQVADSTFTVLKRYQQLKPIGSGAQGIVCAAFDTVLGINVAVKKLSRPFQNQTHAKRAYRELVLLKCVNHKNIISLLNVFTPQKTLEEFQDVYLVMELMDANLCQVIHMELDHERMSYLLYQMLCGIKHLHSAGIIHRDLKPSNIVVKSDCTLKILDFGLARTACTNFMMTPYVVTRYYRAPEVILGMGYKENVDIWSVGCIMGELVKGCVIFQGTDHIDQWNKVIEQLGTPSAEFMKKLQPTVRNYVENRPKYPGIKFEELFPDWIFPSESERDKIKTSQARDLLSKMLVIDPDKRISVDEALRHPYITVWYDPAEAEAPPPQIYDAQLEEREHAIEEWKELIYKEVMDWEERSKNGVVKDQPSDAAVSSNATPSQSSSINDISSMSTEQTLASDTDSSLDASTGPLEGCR

- % of control [1]: 5.25%
SMILES: Cn1cc(-n2cnc3c(NCc4nc5cc(Cl)c(Cl)cc5[nH]4)nc(N4CCOCC4)nc32)cn1

- pIC50 [2]: < 5.00
SMILES: CCC(=O)N1CC[C@H](Nc2ncnc3c2CN(c2cnc(OC)c(C(F)(F)F)c2)CC3)C1 [LENIOLISIB]

- % of control [3]: 100%
SMILES: CCN(CC)CCCCNc1ncc2cc(-c3cc(OC)cc(OC)c3)c(NC(=O)NC(C)(C)C)nc2n1

SMILES: Nc1cnc(N2CCc3cc(S(=O)(=O)Nc4c(F)cc(Cl)cc4F)cc(N4CCCC4=O)c32)nc1 [TP-020n]
- % of control [4]: 89%

SMILES: O[C@H]1CC[C@H](Nc2ncc3nc(Nc4c(F)cc(F)cc4F)n([C@H]4CCOC4)c3n2)CC1
- % of control [5]: 81%

SMILES: N#Cc1cccc(-c2c[nH]c3ncnc(N4CCOCC4)c23)c1
- % of control [6]: 100%
